According to the supplement of paper PMC13380429:

What was measured:
Details in all cases: 72 h
[1] = test system: Caco-2; experiment: cell viability relative to DMSO; higher = less toxic
[2] = test system: Calu-3; experiment: as above
[3] = test system: HepG2; experiment: as above
[4] = test system: U2OS; experiment: as above
[5] = test system: Caco-2; experiment: relative viability EC50 (midpoint between 100% and the lowest measured viability); higher = less toxic
[6] = test system: Calu-3; experiment: as above
[7] = test system: HepG2; experiment: as above
[8] = test system: U2OS; experiment: as above
[9] = test system: Caco-2; experiment: drug sensitivity score (DSS) for viability; higher = more toxic; extreme values may be limits of the assay
[10] = test system: Calu-3; experiment: as above
[11] = test system: HepG2; experiment: as above
[12] = test system: U2OS; experiment: as above
[13] = test system: Vero E6; experiment: cell viability relative to DMSO; higher = less toxic
[14] = test system: Vero E6; experiment: relative viability EC50 (midpoint between 100% and the lowest measured viability); higher = less toxic
[15] = test system: Vero E6; experiment: drug sensitivity score (DSS) for viability; higher = more toxic; extreme values may be limits of the assay

| Compound | cell viability ([1]; 1 nM) [%] | cell viability ([1]; 10 nM) [%] | cell viability ([1]; 100 nM) [%] | cell viability ([1]; 1000 nM) [%] | cell viability ([1]; 10000 nM) [%] | cell viability ([2]; 1 nM) [%] | cell viability ([2]; 10 nM) [%] | cell viability ([2]; 100 nM) [%] | cell viability ([2]; 1000 nM) [%] | cell viability ([2]; 10000 nM) [%] | cell viability ([3]; 1 nM) [%] | cell viability ([3]; 10 nM) [%] | cell viability ([3]; 100 nM) [%] | cell viability ([3]; 1000 nM) [%] | cell viability ([3]; 10000 nM) [%] | cell viability ([4]; 1 nM) [%] | cell viability ([4]; 10 nM) [%] | cell viability ([4]; 100 nM) [%] | cell viability ([4]; 1000 nM) [%] | cell viability ([4]; 10000 nM) [%] | relative viability EC50 [5] [µM] | relative viability EC50 [6] [µM] | relative viability EC50 [7] [µM] | relative viability EC50 [8] [µM] | drug sensitivity score [9] | drug sensitivity score [10] | drug sensitivity score [11] | drug sensitivity score [12] | cell viability ([13]; 1 nM) [%] | cell viability ([13]; 10 nM) [%] | cell viability ([13]; 100 nM) [%] | cell viability ([13]; 1000 nM) [%] | cell viability ([13]; 10000 nM) [%] | relative viability EC50 [14] [µM] | drug sensitivity score [15] |
| --- | --- | --- | --- | --- | --- | --- | --- | --- | --- | --- | --- | --- | --- | --- | --- | --- | --- | --- | --- | --- | --- | --- | --- | --- | --- | --- | --- | --- | --- | --- | --- | --- | --- | --- | --- |
| Cc1c(NC(=O)N2CCOCC2)ccc2c1c1ccccc1n2C(C)C [NPY-5RA972] | 92.2 | 106 | 98.7 | 101 | 95.4 | 109 | 89.5 | 105 | 93.5 | 96 | 102 | 98.5 | 97.3 | 118 | 95.5 | 100 | 98.2 | 105 | 98.6 | 97.5 | > 10 | > 10 | > 10 | > 10 | 0 | 0 | 0 | 0 | – | – | – | – | – | – | – |
| CC(C)N1CCN(c2ccc(C(=O)c3c(-c4ccc(O)cc4)sc4cc(O)ccc34)cc2)CC1 [Y-134] | 99.5 | 102 | 100 | 98.7 | 81.4 | 96 | 96.2 | 101 | 102 | 72.4 | 113 | 101 | 94 | 104 | 72.3 | 102 | 98.5 | 99 | 97.1 | 91.8 | > 10 | – | – | > 10 | 0.6 | 1 | 0.9 | 0 | 101 | 104 | 102 | 103 | 82.8 | > 10 | 0.3 |
| C=C(C)[C@@H]1CC[C@]2(C(=O)O)CC[C@]3(C)[C@H](CC[C@@H]4[C@@]5(C)CC[C@H](O)C(C)(C)[C@@H]5CC[C@]43C)[C@@H]12 [betulinic-acid] | 102 | 108 | 92.3 | 112 | 102 | 93.1 | 97.9 | 93 | 106 | 100 | 109 | 97.4 | 114 | 101 | 113 | 101 | 101 | 98 | 99 | 95 | > 10 | > 10 | > 10 | > 10 | 0 | 0 | 0 | 0 | – | – | – | – | – | – | – |
| O=c1[nH]c(=O)n([C@H]2C[C@H](O)[C@@H](CO)O2)cc1/C=C/Br [brivudine] | 97 | 111 | 104 | 109 | 100 | – | – | – | – | – | – | – | – | – | – | 94.4 | 98.5 | 94.5 | 104 | 98 | > 10 | – | – | > 10 | 0 | – | – | 0 | – | – | – | – | – | – | – |
| C=C1CC/C=C(\C)CC[C@@H]2[C@@H]1CC2(C)C [g-caryophyllene] | 109 | 112 | 97.3 | 121 | 80.6 | – | – | – | – | – | 105 | 95.5 | 113 | 104 | 94.9 | 92.8 | 101 | 95.3 | 99.9 | 99 | > 10 | – | > 10 | > 10 | 0.2 | – | 0 | 0 | 103 | 89.3 | 104 | 94.8 | 100 | > 10 | 0 |
| N#Cc1ccnc(N2C(=O)CC[C@H]2C(=O)N(c2cncc(F)c2)[C@H](C(=O)NC2CC(F)(F)C2)c2ccccc2Cl)c1 [ivosidenib] | 105 | 97.6 | 94.2 | 93 | 104 | 98.8 | 109 | 93.7 | 104 | 97.3 | 97.5 | 97.7 | 95.1 | 106 | 98.7 | 104 | 100 | 104 | 101 | 98.3 | > 10 | > 10 | > 10 | > 10 | 0 | 0 | 0 | 0 | – | – | – | – | – | – | – |
